Experiments:
Test in all cases: KINOMEscan
Format in all cases: binding
Conditions in all cases: 10000 nM; read-out: Percent Control
CDK9 = target: T1, CDK9 (Homo sapiens, UniProt P50750)
T1 construct: purchased DiscoverX KINOMEscan scanEDGE; Eurofins Cerep SafetyScreen87
Method: (§1) The possibility of KDS12025 on kinase off-target, the KINOMEscan panel of scanEDGE assay was conducted in DiscoverX (CA, USA) using a site-directed competition binding with the test compounds. The assay results are given in Supplementary Table 4 and experimental information is available on the DiscoverX web page (www.discoverx.com). Moreover, the Delta SafetyScreen87 panel assay was conducted in Eurofins Discovery (Cerep, France). The assay results are given in Supplementary Table 5 and experimental information is available on the DiscoverX web page (https://www.eurofinsdiscoveryservices.com).

SRC = target: T2, SRC (Homo sapiens, UniProt P12931)
T2 construct: purchased DiscoverX KINOMEscan scanEDGE; Eurofins Cerep SafetyScreen87
Method: as §1

RAF1 = target: T3, RAF1 (Homo sapiens, UniProt P04049)
T3 construct: purchased DiscoverX KINOMEscan scanEDGE; Eurofins Cerep SafetyScreen87
Method: as §1

YANK3 = target: T4, YANK3 (Homo sapiens, UniProt Q86UX6)
T4 construct: purchased DiscoverX KINOMEscan scanEDGE; Eurofins Cerep SafetyScreen87
Method: as §1

MET = target: T5, MET (Homo sapiens, UniProt P08581)
T5 construct: purchased DiscoverX KINOMEscan scanEDGE; Eurofins Cerep SafetyScreen87
Method: as §1

[1] = target: T6, ABL1(E255K)-phosphorylated (Homo sapiens, UniProt P00519, E255K)
T6 construct: purchased DiscoverX KINOMEscan scanEDGE; Eurofins Cerep SafetyScreen87
Method: as §1

CDK7 = target: T7, CDK7 (Homo sapiens, UniProt P50613)
T7 construct: purchased DiscoverX KINOMEscan scanEDGE; Eurofins Cerep SafetyScreen87
Method: as §1

CHEK1 = target: T8, CHEK1 (Homo sapiens, UniProt O14757)
T8 construct: purchased DiscoverX KINOMEscan scanEDGE; Eurofins Cerep SafetyScreen87
Method: as §1

KIT(V559D,T670I) = target: T9, KIT(V559D,T670I) (Homo sapiens, UniProt P10721, T670I/V559D)
T9 construct: purchased DiscoverX KINOMEscan scanEDGE; Eurofins Cerep SafetyScreen87
Method: as §1

ERBB2 = target: T10, ERBB2 (Homo sapiens, UniProt P04626)
T10 construct: purchased DiscoverX KINOMEscan scanEDGE; Eurofins Cerep SafetyScreen87
Method: as §1

PLK1 = target: T11, PLK1 (Homo sapiens, UniProt P53350)
T11 construct: purchased DiscoverX KINOMEscan scanEDGE; Eurofins Cerep SafetyScreen87
Method: as §1

PRKCE = target: T12, PRKCE (Homo sapiens, UniProt Q02156)
T12 construct: purchased DiscoverX KINOMEscan scanEDGE; Eurofins Cerep SafetyScreen87
Method: as §1

p38-alpha = target: T13, p38-alpha (Homo sapiens, UniProt Q16539)
T13 construct: purchased DiscoverX KINOMEscan scanEDGE; Eurofins Cerep SafetyScreen87
Method: as §1

INSR = target: T14, INSR (Homo sapiens, UniProt P06213)
T14 construct: purchased DiscoverX KINOMEscan scanEDGE; Eurofins Cerep SafetyScreen87
Method: as §1

IGF1R = target: T15, IGF1R (Homo sapiens, UniProt P08069)
T15 construct: purchased DiscoverX KINOMEscan scanEDGE; Eurofins Cerep SafetyScreen87
Method: as §1

CSF1R = target: T16, CSF1R (Homo sapiens, UniProt P07333)
T16 construct: purchased DiscoverX KINOMEscan scanEDGE; Eurofins Cerep SafetyScreen87
Method: as §1

EPHA2 = target: T17, EPHA2 (Homo sapiens, UniProt P29317)
T17 construct: purchased DiscoverX KINOMEscan scanEDGE; Eurofins Cerep SafetyScreen87
Method: as §1

MLK1 = target: T18, MLK1 (Homo sapiens, UniProt P80192)
T18 construct: purchased DiscoverX KINOMEscan scanEDGE; Eurofins Cerep SafetyScreen87
Method: as §1

AURKB = target: T19, AURKB (Homo sapiens, UniProt Q96GD4)
T19 construct: purchased DiscoverX KINOMEscan scanEDGE; Eurofins Cerep SafetyScreen87
Method: as §1

PIK3C2B = target: T20, PIK3C2B (Homo sapiens, UniProt O00750)
T20 construct: purchased DiscoverX KINOMEscan scanEDGE; Eurofins Cerep SafetyScreen87
Method: as §1

BMPR2 = target: T21, BMPR2 (Homo sapiens, UniProt Q13873)
T21 construct: purchased DiscoverX KINOMEscan scanEDGE; Eurofins Cerep SafetyScreen87
Method: as §1

SNARK = target: T22, SNARK (Homo sapiens, UniProt Q9H093)
T22 construct: purchased DiscoverX KINOMEscan scanEDGE; Eurofins Cerep SafetyScreen87
Method: as §1

MEK2 = target: T23, MEK2 (Homo sapiens, UniProt P36507)
T23 construct: purchased DiscoverX KINOMEscan scanEDGE; Eurofins Cerep SafetyScreen87
Method: as §1

DYRK1B = target: T24, DYRK1B (Homo sapiens, UniProt Q9Y463)
T24 construct: purchased DiscoverX KINOMEscan scanEDGE; Eurofins Cerep SafetyScreen87
Method: as §1

[2] = target: T25, JAK2(JH1domain-catalytic) (Homo sapiens, UniProt O60674)
T25 construct: JAK2(JH1domain-catalytic); purchased DiscoverX KINOMEscan scanEDGE; Eurofins Cerep SafetyScreen87
Method: as §1

MARK3 = target: T26, MARK3 (Homo sapiens, UniProt P27448)
T26 construct: purchased DiscoverX KINOMEscan scanEDGE; Eurofins Cerep SafetyScreen87
Method: as §1

PIK3CG = target: T27, PIK3CG (Homo sapiens, UniProt P48736)
T27 construct: purchased DiscoverX KINOMEscan scanEDGE; Eurofins Cerep SafetyScreen87
Method: as §1

TIE2 = target: T28, TIE2 (Homo sapiens, UniProt Q02763)
T28 construct: purchased DiscoverX KINOMEscan scanEDGE; Eurofins Cerep SafetyScreen87
Method: as §1

VEGFR2 = target: T29, VEGFR2 (Homo sapiens, UniProt P35968)
T29 construct: purchased DiscoverX KINOMEscan scanEDGE; Eurofins Cerep SafetyScreen87
Method: as §1

PIM3 = target: T30, PIM3 (Homo sapiens, UniProt Q86V86)
T30 construct: purchased DiscoverX KINOMEscan scanEDGE; Eurofins Cerep SafetyScreen87
Method: as §1

ABL1-nonphosphorylated = target: T31, ABL1-nonphosphorylated (Homo sapiens, UniProt P00519)
T31 construct: purchased DiscoverX KINOMEscan scanEDGE; Eurofins Cerep SafetyScreen87
Method: as §1

CSNK1D = target: T32, CSNK1D (Homo sapiens, UniProt P48730)
T32 construct: purchased DiscoverX KINOMEscan scanEDGE; Eurofins Cerep SafetyScreen87
Method: as §1

CDK2 = target: T33, CDK2 (Homo sapiens, UniProt P24941)
T33 construct: purchased DiscoverX KINOMEscan scanEDGE; Eurofins Cerep SafetyScreen87
Method: as §1

FAK = target: T34, FAK (Homo sapiens, UniProt Q05397)
T34 construct: purchased DiscoverX KINOMEscan scanEDGE; Eurofins Cerep SafetyScreen87
Method: as §1

SRPK3 = target: T35, SRPK3 (Homo sapiens, UniProt Q9UPE1)
T35 construct: purchased DiscoverX KINOMEscan scanEDGE; Eurofins Cerep SafetyScreen87
Method: as §1

AKT2 = target: T36, AKT2 (Homo sapiens, UniProt P31751)
T36 construct: purchased DiscoverX KINOMEscan scanEDGE; Eurofins Cerep SafetyScreen87
Method: as §1

AXL = target: T37, AXL (Homo sapiens, UniProt P30530)
T37 construct: purchased DiscoverX KINOMEscan scanEDGE; Eurofins Cerep SafetyScreen87
Method: as §1

ULK2 = target: T38, ULK2 (Homo sapiens, UniProt Q8IYT8)
T38 construct: purchased DiscoverX KINOMEscan scanEDGE; Eurofins Cerep SafetyScreen87
Method: as §1

CDK3 = target: T39, CDK3 (Homo sapiens, UniProt Q00526)
T39 construct: purchased DiscoverX KINOMEscan scanEDGE; Eurofins Cerep SafetyScreen87
Method: as §1

T14 sequence (P06213 28-1382): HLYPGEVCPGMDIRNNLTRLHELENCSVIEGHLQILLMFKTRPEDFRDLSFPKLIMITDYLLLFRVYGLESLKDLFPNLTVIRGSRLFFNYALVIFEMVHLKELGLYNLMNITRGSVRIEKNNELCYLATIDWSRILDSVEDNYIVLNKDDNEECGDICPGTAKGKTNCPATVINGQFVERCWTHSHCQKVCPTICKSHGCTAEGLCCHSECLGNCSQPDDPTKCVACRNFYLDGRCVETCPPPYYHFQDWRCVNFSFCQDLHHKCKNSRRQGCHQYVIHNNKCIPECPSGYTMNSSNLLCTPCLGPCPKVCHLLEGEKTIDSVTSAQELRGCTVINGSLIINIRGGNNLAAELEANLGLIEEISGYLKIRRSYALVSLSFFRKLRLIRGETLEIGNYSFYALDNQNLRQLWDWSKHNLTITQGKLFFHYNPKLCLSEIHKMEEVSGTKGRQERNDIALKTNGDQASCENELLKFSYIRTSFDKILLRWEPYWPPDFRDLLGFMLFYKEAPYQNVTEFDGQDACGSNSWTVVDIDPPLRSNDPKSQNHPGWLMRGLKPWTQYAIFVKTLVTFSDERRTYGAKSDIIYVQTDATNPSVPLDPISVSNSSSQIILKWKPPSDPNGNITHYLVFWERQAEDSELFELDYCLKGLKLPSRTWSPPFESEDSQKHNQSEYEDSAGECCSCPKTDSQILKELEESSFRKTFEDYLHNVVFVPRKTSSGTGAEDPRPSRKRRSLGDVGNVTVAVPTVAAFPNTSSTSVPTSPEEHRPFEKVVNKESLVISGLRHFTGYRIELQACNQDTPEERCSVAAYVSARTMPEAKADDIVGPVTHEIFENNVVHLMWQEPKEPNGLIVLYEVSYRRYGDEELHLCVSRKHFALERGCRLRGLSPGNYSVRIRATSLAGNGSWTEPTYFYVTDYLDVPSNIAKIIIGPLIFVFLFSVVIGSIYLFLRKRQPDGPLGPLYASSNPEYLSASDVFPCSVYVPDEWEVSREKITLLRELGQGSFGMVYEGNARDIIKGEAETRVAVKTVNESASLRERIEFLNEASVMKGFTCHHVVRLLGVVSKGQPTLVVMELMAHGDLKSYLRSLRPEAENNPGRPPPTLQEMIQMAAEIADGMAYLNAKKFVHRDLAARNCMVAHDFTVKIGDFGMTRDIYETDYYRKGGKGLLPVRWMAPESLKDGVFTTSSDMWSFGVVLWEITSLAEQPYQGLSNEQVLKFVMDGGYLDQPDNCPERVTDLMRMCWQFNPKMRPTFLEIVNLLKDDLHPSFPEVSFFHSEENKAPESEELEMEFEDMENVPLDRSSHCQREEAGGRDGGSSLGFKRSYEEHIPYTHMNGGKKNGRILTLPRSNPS
T10 sequence (P04626 23-1255): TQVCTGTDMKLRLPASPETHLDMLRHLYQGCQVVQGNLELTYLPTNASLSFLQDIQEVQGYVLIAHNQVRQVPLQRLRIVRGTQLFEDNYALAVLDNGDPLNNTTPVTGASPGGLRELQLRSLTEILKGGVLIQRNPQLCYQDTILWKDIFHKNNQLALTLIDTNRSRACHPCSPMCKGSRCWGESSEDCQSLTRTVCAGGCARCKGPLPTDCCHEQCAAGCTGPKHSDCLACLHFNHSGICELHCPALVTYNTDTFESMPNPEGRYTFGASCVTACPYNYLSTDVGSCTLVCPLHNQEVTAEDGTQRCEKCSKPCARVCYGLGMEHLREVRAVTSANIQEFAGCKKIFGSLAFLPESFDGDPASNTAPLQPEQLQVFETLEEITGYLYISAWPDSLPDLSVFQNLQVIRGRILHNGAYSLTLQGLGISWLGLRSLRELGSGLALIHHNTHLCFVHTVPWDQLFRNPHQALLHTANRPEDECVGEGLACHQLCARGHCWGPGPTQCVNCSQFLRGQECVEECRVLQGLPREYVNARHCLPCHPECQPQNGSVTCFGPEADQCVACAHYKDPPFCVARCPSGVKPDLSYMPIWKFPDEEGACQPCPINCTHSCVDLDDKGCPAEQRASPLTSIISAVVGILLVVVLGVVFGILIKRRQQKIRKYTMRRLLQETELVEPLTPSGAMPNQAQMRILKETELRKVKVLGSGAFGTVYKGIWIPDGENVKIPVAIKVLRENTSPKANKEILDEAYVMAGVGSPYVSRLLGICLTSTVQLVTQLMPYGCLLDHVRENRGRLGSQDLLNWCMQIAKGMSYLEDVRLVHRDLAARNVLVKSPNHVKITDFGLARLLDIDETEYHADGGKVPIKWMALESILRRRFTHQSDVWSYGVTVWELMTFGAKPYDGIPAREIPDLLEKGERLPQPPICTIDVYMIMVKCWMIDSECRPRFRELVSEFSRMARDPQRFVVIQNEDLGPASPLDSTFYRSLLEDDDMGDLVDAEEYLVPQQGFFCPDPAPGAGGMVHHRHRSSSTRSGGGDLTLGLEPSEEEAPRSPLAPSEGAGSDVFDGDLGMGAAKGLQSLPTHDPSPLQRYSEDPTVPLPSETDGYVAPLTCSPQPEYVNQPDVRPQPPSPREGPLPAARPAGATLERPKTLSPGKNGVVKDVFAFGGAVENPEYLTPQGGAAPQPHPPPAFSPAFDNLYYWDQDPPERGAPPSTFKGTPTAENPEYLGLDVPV
T19 sequence (Q96GD4 whole entry): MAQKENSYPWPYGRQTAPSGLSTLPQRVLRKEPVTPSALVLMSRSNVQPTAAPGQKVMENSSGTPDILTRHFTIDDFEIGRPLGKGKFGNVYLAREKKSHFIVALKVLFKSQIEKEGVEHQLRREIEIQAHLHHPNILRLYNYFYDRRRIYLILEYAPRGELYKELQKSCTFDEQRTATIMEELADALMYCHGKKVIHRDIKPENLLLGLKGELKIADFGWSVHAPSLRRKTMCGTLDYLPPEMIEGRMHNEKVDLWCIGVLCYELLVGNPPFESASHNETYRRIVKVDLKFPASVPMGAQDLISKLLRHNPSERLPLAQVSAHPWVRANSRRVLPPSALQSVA
T12 sequence (Q02156 whole entry): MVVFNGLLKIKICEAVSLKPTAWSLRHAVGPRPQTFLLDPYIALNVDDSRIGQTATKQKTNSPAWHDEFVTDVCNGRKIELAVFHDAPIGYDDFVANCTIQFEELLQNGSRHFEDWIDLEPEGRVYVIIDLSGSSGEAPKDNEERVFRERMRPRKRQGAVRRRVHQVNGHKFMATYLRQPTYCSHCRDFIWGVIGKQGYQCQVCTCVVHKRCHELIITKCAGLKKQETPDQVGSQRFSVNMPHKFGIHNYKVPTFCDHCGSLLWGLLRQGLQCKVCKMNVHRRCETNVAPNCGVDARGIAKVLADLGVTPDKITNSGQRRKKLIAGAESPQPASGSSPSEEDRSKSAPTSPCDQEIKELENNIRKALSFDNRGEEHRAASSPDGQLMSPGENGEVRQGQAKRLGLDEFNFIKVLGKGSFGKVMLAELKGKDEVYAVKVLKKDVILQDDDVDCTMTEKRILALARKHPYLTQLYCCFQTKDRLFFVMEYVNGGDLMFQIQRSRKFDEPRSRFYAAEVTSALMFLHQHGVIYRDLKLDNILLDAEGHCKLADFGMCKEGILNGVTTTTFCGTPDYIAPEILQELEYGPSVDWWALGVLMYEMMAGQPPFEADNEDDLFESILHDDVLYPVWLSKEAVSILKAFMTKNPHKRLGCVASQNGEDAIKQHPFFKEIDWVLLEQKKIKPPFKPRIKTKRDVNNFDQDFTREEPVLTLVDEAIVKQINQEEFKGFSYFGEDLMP
T24 sequence (Q9Y463 whole entry): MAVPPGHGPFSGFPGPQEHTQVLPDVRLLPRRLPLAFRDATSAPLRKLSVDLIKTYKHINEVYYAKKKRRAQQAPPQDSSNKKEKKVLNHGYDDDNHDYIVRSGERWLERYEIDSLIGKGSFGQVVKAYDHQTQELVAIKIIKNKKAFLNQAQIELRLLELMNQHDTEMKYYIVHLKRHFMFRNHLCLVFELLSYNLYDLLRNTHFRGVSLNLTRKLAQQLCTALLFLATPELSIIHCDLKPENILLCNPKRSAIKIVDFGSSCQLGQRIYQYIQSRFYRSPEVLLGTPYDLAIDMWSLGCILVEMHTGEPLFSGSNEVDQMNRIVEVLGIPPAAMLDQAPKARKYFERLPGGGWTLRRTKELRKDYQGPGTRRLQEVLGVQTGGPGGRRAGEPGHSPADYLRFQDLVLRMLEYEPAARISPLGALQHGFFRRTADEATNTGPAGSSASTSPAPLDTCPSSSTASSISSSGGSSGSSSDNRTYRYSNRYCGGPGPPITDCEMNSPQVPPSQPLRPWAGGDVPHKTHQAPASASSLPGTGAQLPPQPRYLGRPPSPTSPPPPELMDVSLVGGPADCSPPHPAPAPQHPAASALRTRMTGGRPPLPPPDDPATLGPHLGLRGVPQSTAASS
T13 sequence (Q16539 whole entry): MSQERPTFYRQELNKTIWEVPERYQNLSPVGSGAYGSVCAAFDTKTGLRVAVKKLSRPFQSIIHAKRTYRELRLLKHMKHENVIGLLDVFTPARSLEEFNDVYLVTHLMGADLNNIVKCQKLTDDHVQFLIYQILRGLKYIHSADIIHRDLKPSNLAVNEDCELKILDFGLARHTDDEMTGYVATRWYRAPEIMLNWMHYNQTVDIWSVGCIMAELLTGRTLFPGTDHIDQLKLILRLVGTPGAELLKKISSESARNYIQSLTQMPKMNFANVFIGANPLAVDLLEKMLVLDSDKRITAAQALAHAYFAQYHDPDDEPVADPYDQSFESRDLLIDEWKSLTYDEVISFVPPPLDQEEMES

Question: With `CNc1ccc(NCCc2ccccc2OC)cc1.Cl` [KDS12025, N^1-(2-methoxyphenethyl)-N^4-methylbenzene-1,4-diamine hydrochloride salt] as the molecule, how does the remaining binding at 10 µM (CDK9) read?
Answer: The remaining binding at 10 µM was 83%.

Question: And the remaining binding at 10 µM (SRC)?
Answer: Its remaining binding at 10 µM is 72%.

Question: And the remaining binding at 10 µM (RAF1)?
Answer: Its remaining binding at 10 µM is 95%.

Question: What about the remaining binding at 10 µM (YANK3) of the same molecule?
Answer: Its remaining binding at 10 µM is 83%.

Question: What about the remaining binding at 10 µM (MET) of the same molecule?
Answer: The remaining binding at 10 µM was 82%.

Question: What about the remaining binding at 10 µM [1] of the same molecule?
Answer: Its remaining binding at 10 µM is 100%.

Question: What about the remaining binding at 10 µM (CDK7) of the same molecule?
Answer: The remaining binding at 10 µM was 89%.

Question: And the remaining binding at 10 µM (CHEK1)?
Answer: The remaining binding at 10 µM was 82%.

Question: And the remaining binding at 10 µM (KIT(V559D,T670I))?
Answer: Its remaining binding at 10 µM is 94%.

Question: And the remaining binding at 10 µM (ERBB2)?
Answer: The remaining binding at 10 µM was 100%.

Question: And the remaining binding at 10 µM (PLK1)?
Answer: The remaining binding at 10 µM was 100%.

Question: What about the remaining binding at 10 µM (PRKCE) of the same molecule?
Answer: Its remaining binding at 10 µM is 100%.

Question: And the remaining binding at 10 µM (p38-alpha)?
Answer: Its remaining binding at 10 µM is 100%.

Question: What about the remaining binding at 10 µM (INSR) of the same molecule?
Answer: Its remaining binding at 10 µM is 85%.

Question: And the remaining binding at 10 µM (IGF1R)?
Answer: Its remaining binding at 10 µM is 84%.

Question: What about the remaining binding at 10 µM (CSF1R) of the same molecule?
Answer: Its remaining binding at 10 µM is 100%.

Question: What about the remaining binding at 10 µM (EPHA2) of the same molecule?
Answer: Its remaining binding at 10 µM is 89%.

Question: What about the remaining binding at 10 µM (MLK1) of the same molecule?
Answer: The remaining binding at 10 µM was 79%.

Question: What about the remaining binding at 10 µM (AURKB) of the same molecule?
Answer: The remaining binding at 10 µM was 78%.

Question: And the remaining binding at 10 µM (PIK3C2B)?
Answer: Its remaining binding at 10 µM is 91%.

Question: And the remaining binding at 10 µM (BMPR2)?
Answer: Its remaining binding at 10 µM is 92%.

Question: What about the remaining binding at 10 µM (SNARK) of the same molecule?
Answer: Its remaining binding at 10 µM is 100%.

Question: What about the remaining binding at 10 µM (MEK2) of the same molecule?
Answer: The remaining binding at 10 µM was 91%.

Question: And the remaining binding at 10 µM (DYRK1B)?
Answer: The remaining binding at 10 µM was 67%.

Question: What about the remaining binding at 10 µM [2] of the same molecule?
Answer: Its remaining binding at 10 µM is 100%.

Question: And the remaining binding at 10 µM (MARK3)?
Answer: Its remaining binding at 10 µM is 66%.

Question: And the remaining binding at 10 µM (PIK3CG)?
Answer: Its remaining binding at 10 µM is 100%.

Question: What about the remaining binding at 10 µM (TIE2) of the same molecule?
Answer: Its remaining binding at 10 µM is 100%.

Question: And the remaining binding at 10 µM (VEGFR2)?
Answer: The remaining binding at 10 µM was 100%.

Question: What about the remaining binding at 10 µM (PIM3) of the same molecule?
Answer: Its remaining binding at 10 µM is 84%.

Question: And the remaining binding at 10 µM (ABL1-nonphosphorylated)?
Answer: The remaining binding at 10 µM was 72%.

Question: What about the remaining binding at 10 µM (CSNK1D) of the same molecule?
Answer: Its remaining binding at 10 µM is 88%.

Question: What about the remaining binding at 10 µM (CDK2) of the same molecule?
Answer: The remaining binding at 10 µM was 92%.

Question: What about the remaining binding at 10 µM (FAK) of the same molecule?
Answer: Its remaining binding at 10 µM is 100%.

Question: And the remaining binding at 10 µM (SRPK3)?
Answer: The remaining binding at 10 µM was 91%.

Question: And the remaining binding at 10 µM (AKT2)?
Answer: The remaining binding at 10 µM was 94%.

Question: And the remaining binding at 10 µM (AXL)?
Answer: The remaining binding at 10 µM was 95%.

Question: What about the remaining binding at 10 µM (ULK2) of the same molecule?
Answer: Its remaining binding at 10 µM is 95%.

Question: What about the remaining binding at 10 µM (CDK3) of the same molecule?
Answer: Its remaining binding at 10 µM is 79%.

Reference: PMC12373846, “Hemoglobin as a pseudoperoxidase and drug target for oxidative stress-related diseases” (Signal Transduction and Targeted Therapy, 2025)
